# Results: PubChem BioAssay AID248 (DTP/NCI, 2004)
# Values joined by “and” are separate entries in the source; they are usually repeats but may differ in a detail not shown here. Equal entries are not always repeated. Toxic doses and inconclusive results are not listed.
# System: L1210 leukemia ip in BDF1 mice, survival T/C
# Experiment: NCI In Vivo Anticancer Drug Screen. Data for tumor model L1210 Leukemia (intraperitoneal) in B6D2F1 (BDF1) mice
# Conditions: endpoint: mean survival time, higher = longer survival
# Outline: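 Each compound was tested against a transplantable tumor grown in mice. The endpoint was survival, with treated animals benchmarked against vehicle controls as a simple ratio.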
smiles,measurement,setting,value
NC(Cc1c[nH]c2ccc(N(CCCl)CCCl)cc12)C(=O)O (stereo not given),T/C,"dose: 1.87 mg/kg/injection, schedule: Q01DX001 (oral), vehicle: carboxymethylcellulose (CMC)",106 % of control
same,T/C,"dose: 2.0 mg/kg/injection, schedule: Q01DX (oral), vehicle: acid diluted with saline",102 % of control
same,T/C,"dose: 3.5 mg/kg/injection, schedule: Q01DX 1 (oral), vehicle: acid diluted with saline",110 % of control and 124 % of control
same,T/C,"dose: 3.5 mg/kg/injection, schedule: Q07DX (oral), vehicle: acid diluted with saline",114 % of control
same,T/C,"dose: 3.75 mg/kg/injection, schedule: Q01DX001 (ip), vehicle: carboxymethylcellulose (CMC)",192 % of control
same,T/C,"dose: 3.75 mg/kg/injection, schedule: Q01DX001 (oral), vehicle: carboxymethylcellulose (CMC)",108 % of control
same,T/C,"dose: 4.0 mg/kg/injection, schedule: Q01DX (oral), vehicle: acid diluted with saline",106 % of control
same,T/C,"dose: 5.0 mg/kg/injection, schedule: Q01DX001 (ip), vehicle: saline",295 % of control
same,T/C,"dose: 7.0 mg/kg/injection, schedule: Q01DX 1 (oral), vehicle: acid diluted with saline",110 % of control and 124 % of control
same,T/C,"dose: 7.0 mg/kg/injection, schedule: Q07DX (oral), vehicle: acid diluted with saline",123 % of control
same,T/C,"dose: 7.0 mg/kg/injection, schedule: Q07DX Z (oral), vehicle: acid diluted with saline",116 % of control
same,T/C,"dose: 7.5 mg/kg/injection, schedule: Q01DX001 (ip), vehicle: carboxymethylcellulose (CMC)",264 % of control
same,T/C,"dose: 7.5 mg/kg/injection, schedule: Q01DX001 (oral), vehicle: carboxymethylcellulose (CMC)",114 % of control
same,T/C,"dose: 8.0 mg/kg/injection, schedule: Q01DX (oral), vehicle: acid diluted with saline",95 % of control
same,T/C,"dose: 8.0 mg/kg/injection, schedule: Q03DX Z (oral), vehicle: acid diluted with saline",119 % of control
same,T/C,"dose: 10.0 mg/kg/injection, schedule: Q01DX001 (ip), vehicle: saline",270 % of control
same,T/C,"dose: 14.0 mg/kg/injection, schedule: Q01DX 1 (oral), vehicle: acid diluted with saline",105 % of control and 115 % of control
same,T/C,"dose: 14.0 mg/kg/injection, schedule: Q07DX Z (oral), vehicle: acid diluted with saline",107 % of control
same,T/C,"dose: 15.0 mg/kg/injection, schedule: Q01DX001 (oral), vehicle: carboxymethylcellulose (CMC)",119 % of control
same,T/C,"dose: 16.0 mg/kg/injection, schedule: Q01DX (oral), vehicle: acid diluted with saline",95 % of control
same,T/C,"dose: 16.0 mg/kg/injection, schedule: Q01DX Z (oral), vehicle: acid diluted with saline",116 % of control
same,T/C,"dose: 20.0 mg/kg/injection, schedule: Q01DX001 (oral), vehicle: saline",119 % of control
same,T/C,"dose: 28.0 mg/kg/injection, schedule: Q01DX 1 (oral), vehicle: acid diluted with saline",104 % of control and 118 % of control
same,T/C,"dose: 28.0 mg/kg/injection, schedule: Q01DX001 (oral), vehicle: acid diluted with saline",108 % of control and 118 % of control
same,T/C,"dose: 28.0 mg/kg/injection, schedule: Q07DX (oral), vehicle: acid diluted with saline",120 % of control
same,T/C,"dose: 40.0 mg/kg/injection, schedule: Q01DX001 (oral), vehicle: saline",86 % of control
same,T/C,"dose: 56.0 mg/kg/injection, schedule: Q01DX 1 (oral), vehicle: acid diluted with saline",113 % of control and 121 % of control
same,T/C,"dose: 56.0 mg/kg/injection, schedule: Q01DX001 (oral), vehicle: acid diluted with saline",117 % of control and 122 % of control
same,T/C,"dose: 56.0 mg/kg/injection, schedule: Q07DX (oral), vehicle: acid diluted with saline",123 % of control
same,T/C,"dose: 80.0 mg/kg/injection, schedule: Q01DX001 (oral), vehicle: saline",102 % of control
same,T/C,"dose: 112.0 mg/kg/injection, schedule: Q01DX001 (oral), vehicle: acid diluted with saline",120 % of control
same,T/C,"dose: 168.0 mg/kg/injection, schedule: Q01DX001 (oral), vehicle: acid diluted with saline",122 % of control
same,T/C,"dose: 204.0 mg/kg/injection, schedule: Q01DX 1 (oral), vehicle: acid diluted with saline",106 % of control
same,T/C,"dose: 204.0 mg/kg/injection, schedule: Q01DX001 (oral), vehicle: acid diluted with saline",107 % of control
same,T/C,"dose: 1.0 micrograms/kg/injection, schedule: Q07DX 2 (ip), vehicle: acid diluted with saline",101 % of control
same,T/C,"dose: 5.0 micrograms/kg/injection, schedule: Q07DX 2 (ip), vehicle: acid diluted with saline",102 % of control
same,T/C,"dose: 16.0 micrograms/kg/injection, schedule: Q07DX 2 (ip), vehicle: acid diluted with saline",117 % of control
same,T/C,"dose: 22.0 micrograms/kg/injection, schedule: Q01DX Z (ip), vehicle: saline",104 % of control
same,T/C,"dose: 33.0 micrograms/kg/injection, schedule: Q01DX Z (ip), vehicle: saline",107 % of control
same,T/C,"dose: 45.0 micrograms/kg/injection, schedule: Q01DX009 (ip), vehicle: saline",109 % of control
same,T/C,"dose: 50.0 micrograms/kg/injection, schedule: Q01DX Z (ip), vehicle: saline",107 % of control
same,T/C,"dose: 50.0 micrograms/kg/injection, schedule: Q07DX 2 (ip), vehicle: acid diluted with saline",123 % of control
same,T/C,"dose: 75.0 micrograms/kg/injection, schedule: Q01DX Z (ip), vehicle: saline",115 % of control
same,T/C,"dose: 750.0 micrograms/kg/injection, schedule: Q01DX009 (ip), vehicle: saline",207 % of control
same,T/C,"dose: 1500.0 micrograms/kg/injection, schedule: Q01DX009 (ip), vehicle: saline",219 % of control
